Assays:
[1] = tested on: human prostate PC-3 cancer cells; test: Resazurin-based metabolic cytotoxicity assay, PC-3; assay type: cell-based; conditions: 24 hours exposure, then 24 hours in DMEM; 17-DMAPG equivalents
Experimental: (§1) For cell culture, cells were maintained at 37° C., 5% CO2 and 95% humidity in Dulbecco's modified Eagle's medium (DMEM) supplemented with 10% (v/v) heat inactivated fetal bovine serum (FBS), 2 mM L-glutamine and 100 unit/mL penicillin and 1000 μg/mL streptomycin. Cytotoxicity of 17-DMAPG loaded lipogels was assessed in human prostate PC-3 cancer cells and breast carcinoma MDA-MB-231 cells by resazurin-based metabolic assay. Briefly, cells were seeded in 96-well plates with 5,000 cells per well and allowed to adhere for 24 hours prior to the assay. Cells were exposed to various doses (0-35 μM on 17-DMAPG basis) of free 17-DMAPG, lipogel loaded 17-DMAPG and lipogel alone for 24 hours at 37° C., followed by washing with PBS, and maintaining in DMEM medium with 10% FBS for additional 24 hours. 10 μl of resazurin PBS solution (440 μM) was added into each well and incubated for a further 2 hours. The fluorescence was measured with a microplate reader (SpectraMax Gemini XS, Molecular Devices) with excitation at 560 nm and emission at 590 nm using wells without cells as blanks. […] The reading taken from the wells with cells cultured with control medium was used as 100% viability. The cell viability was calculated as Esample/Econtrol×100%. Based on the results of the test, the IC50 values were calculated on GraphPad Prism 5 Software (San Diego Calif., USA).

[2] = tested on: breast carcinoma MDA-MB-231 cells; test: Resazurin-based metabolic cytotoxicity assay, MDA-MB-231; assay type: cell-based, human; conditions: 24 hours exposure, then 24 hours in DMEM; 17-DMAPG equivalents
Experimental: as §1

pKa of active agents = assay type: physicochemical; conditions: pH 6.5
[3] = Heat stability of 17-DMAPG during incubation, HPLC analysis; assay type: physicochemical; conditions: extended incubation at 65° C.

- fraction protonated and positively charged (pKa of active agents): approximately 99%
- heat stability (in words) [3]: heat instability
SMILES: CO[C@H]1/C=C\C=C(/C)C(=O)NC2=CC(=O)C(NCCCN(C)C)=C(C[C@@H](C)C[C@H](OC)[C@H](O)[C@@H](C)/C=C(\C)[C@@H]1OC(N)=O)C2=O [17-DMAPG, 17-(dimethylaminopropylamino)-17-demethoxygeldanamycin]
- IC50 [1]: 807 nM
- IC50 [2]: 152 nM

Source: patent publication US20140127287A1, “LIPOSOME-ENCAPSULATED HYDROGELS FOR USE IN A DRUG DELIVERY SYSTEM” (Wisconsin Alumni Research Foundation (WARF), priority 2011, published 2014)
